Results from ChEMBL document CHEMBL1152905, “Identification and characterization of a selective radioligand for melanin-concentrating hormone 1-receptor (MCH1R)” (Bioorg Med Chem Lett, 2009).
The source made the active and inactive calls. No cut-off for these calls is given here. Bridge positions count the residues as written; N and C are the ends. Peptide text beside a SMILES is read from it. * marks the point of attachment. X2 = NC(=O)CC[C@@H](CN[C@@H](Cc1ccc(O)c(I)c1)C(=O)O)N*; X1 = NC(=O)CC[C@@H](CN[C@@H](Cc1ccc(O)cc1)C(=O)O)N*

Key:
[1] = biological target: T1, Melanin-concentrating hormone receptor 1 (Homo sapiens, UniProt Q99705); experiment: Displacement of[125I]MCH from human MCH1R expressed in CHO cells; assay type: cell-based
T1 sequence (Q99705 whole entry): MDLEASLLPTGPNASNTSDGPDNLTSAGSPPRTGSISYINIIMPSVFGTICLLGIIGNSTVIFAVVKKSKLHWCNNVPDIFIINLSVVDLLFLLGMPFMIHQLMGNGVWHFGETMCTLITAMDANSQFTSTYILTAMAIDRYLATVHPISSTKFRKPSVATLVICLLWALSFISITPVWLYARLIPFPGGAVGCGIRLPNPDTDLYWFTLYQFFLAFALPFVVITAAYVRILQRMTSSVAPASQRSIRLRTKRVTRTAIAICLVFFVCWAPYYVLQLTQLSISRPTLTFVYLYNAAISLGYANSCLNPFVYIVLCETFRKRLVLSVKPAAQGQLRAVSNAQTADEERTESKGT

[2] = Lipophilicity, log D at pH 7.4; assay type: physicochemical; settings: buffer
[3] = biological target: T1, Melanin-concentrating hormone receptor 1; experiment: Binding affinity to human MCH1R expressed in CHO cells by scintillation counting per mg of protein; assay type: cell-based
[4] = biological target: Melanin-concentrating hormone receptor 1 (Mus musculus, UniProt Q8JZL2); experiment: Displacement of [35S] 4-(1-(3,4-difluorophenyl)-2-(ethyl(3-(6-fluoro-3H-spiro[isobenzofuran-1,4'-piperidine]-1'-yl)propyl)amino)-2-oxoethyl)-3-oxopiperazine-1-sulfonic acid from mouse MCH1R
Chain of Melanin-concentrating hormone receptor 1 (Mus musculus, UniProt Q8JZL2) (Q8JZL2 whole entry): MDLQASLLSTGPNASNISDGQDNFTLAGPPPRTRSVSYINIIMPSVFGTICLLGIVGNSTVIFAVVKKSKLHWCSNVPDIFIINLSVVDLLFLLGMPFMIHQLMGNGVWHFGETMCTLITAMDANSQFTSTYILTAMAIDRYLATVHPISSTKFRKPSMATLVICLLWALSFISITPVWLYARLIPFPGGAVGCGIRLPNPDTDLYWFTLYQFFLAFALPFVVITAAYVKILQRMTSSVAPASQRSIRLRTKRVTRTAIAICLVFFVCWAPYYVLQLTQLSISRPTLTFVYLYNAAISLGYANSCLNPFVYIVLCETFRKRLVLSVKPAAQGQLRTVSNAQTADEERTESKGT

[5] = biological target: Melanin-concentrating hormone receptor 2 (Homo sapiens, UniProt Q969V1); experiment: Displacement of [35S] 4-(1-(3,4-difluorophenyl)-2-(ethyl(3-(6-fluoro-3H-spiro[isobenzofuran-1,4'-piperidine]-1'-yl)propyl)amino)-2-oxoethyl)-3-oxopiperazine-1-sulfonic acid from human MCH2R
Chain of Melanin-concentrating hormone receptor 2 (Q969V1 whole entry): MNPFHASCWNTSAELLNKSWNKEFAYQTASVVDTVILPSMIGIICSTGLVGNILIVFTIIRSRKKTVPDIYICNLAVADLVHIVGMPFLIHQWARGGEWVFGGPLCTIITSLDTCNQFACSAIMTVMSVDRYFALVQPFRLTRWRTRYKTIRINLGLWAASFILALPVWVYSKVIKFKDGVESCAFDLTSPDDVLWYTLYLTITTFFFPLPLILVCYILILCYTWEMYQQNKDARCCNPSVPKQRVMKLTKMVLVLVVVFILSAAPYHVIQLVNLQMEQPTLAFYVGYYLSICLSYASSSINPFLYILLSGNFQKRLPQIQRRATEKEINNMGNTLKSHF

[6] = biological target: Melanin-concentrating hormone receptor 1 (Mus musculus) (UniProt Q8JZL2); experiment: Binding affinity to MCH1R in wild type mouse coronal slice […] at 500 pM by radioactivity study; settings: tested as the 35S-labelled form
Chain of Melanin-concentrating hormone receptor 1 (Mus musculus) (Q8JZL2 whole entry): as the sequence (Q8JZL2 whole entry) above

[7] = biological target: T1, Melanin-concentrating hormone receptor 1; experiment: Displacement of [35S] 4-(1-(3,4-difluorophenyl)-2-(ethyl(3-(6-fluoro-3H-spiro[isobenzofuran-1,4'-piperidine]-1'-yl)propyl)amino)-2-oxoethyl)-3-oxopiperazine-1-sulfonic acid from human MCH1R

Q: For `CCN(CCCN1CCC2(CC1)OCc1ccc(F)cc12)C(=O)C(c1ccc(F)c(F)c1)N1CCNCC1=O` (centres undefined), which IC50 [1] is on record?
A: 0.87 nM

Q: With `CN(CCCN1CCC2(CC1)OCc1ccccc12)C(=O)C(c1ccc(F)c(F)c1)N1CCCC1=O` (centres undefined) as the compound, how does the logD [2] read?
A: 2.2

Q: What about the IC50 [1] of the same compound?
A: 2.7 nM

Q: Which IC50 [1] does the source give for `CCN(CCCN1CCC2(CC1)OCc1ccc(F)cc12)C(=O)C(c1ccc(F)c(F)c1)N1CCN(C(=O)OC(C)(C)C)CC1=O` (stereo in doubt; 5a) here?
A: 0.24 nM

Q: Which IC50 [1] does the source give for `CCN(CCCN1CCC2(CC1)OCc1ccc(F)cc12)C(=O)C(c1ccc(F)c(F)c1)N1CCN(C(=O)OC(C)(C)C)CC1=O` (stereo in doubt; 5b) here?
A: 145 nM

Q: Which Bmax ([3]; tested as the 125I-labelled form) does the source give for `CSCC[C@@H]1NC(=O)[C@@H](NC(=O)[C@H](CCCNC(=N)N)NC(=O)[C@H](CC(C)C)NC(=O)[C@H](CCSC)NC(=O)[C@H](CC(=O)O)NC(=O)[C@H](Cc2ccccc2)NC(=O)[C@@H](N)CC(=O)O)CSSC[C@@H](C(=O)N[C@@H](Cc2c[nH]c3ccccc23)C(=O)N[C@@H](CCC(N)=O)CN[C@@H](Cc2ccc(O)c(I)c2)C(=O)O)NC(=O)[C@@H]2CCCN2C(=O)[C@H](CCCNC(=N)N)NC(=O)[C@H](Cc2ccccc2)NC(=O)[C@H](C(C)C)NC(=O)[C@H](CCCNC(=N)N)NC(=O)CNC(=O)[C@H](CC(C)C)NC1=O` (H-DFDMLRCMLGRVFRPCW-X2; disulfide 7-16) here?
A: 24 pmol

Q: Which Ki [4] does the source give for `CCN(CCCN1CCC2(CC1)OCc1ccc(F)cc12)C(=O)C(c1ccc(F)c(F)c1)N1CCN([35S](C)(=O)=O)CC1=O` (centres undefined) here?
A: 0.5 nM

Q: What about the Ki [5] of the same compound?
A: > 9700 nM

Q: For `CCN(CCCN1CCC2(CC1)OCc1ccc(F)cc12)C(=O)C(c1ccc(F)c(F)c1)N1CCN(S(C)(=O)=O)CC1=O` (centres undefined), which Bmax ([3]; tested as the 35S-labelled form) is on record?
A: 23 pmol

Q: What about the Activity [6] of the same compound?
A: Active

Q: Which IC50 [1] does the source give for `CCN(CCCN1CCC2(CC1)OCc1ccc(F)cc12)C(=O)C(c1ccc(F)c(F)c1)N1CCCC1=O` (centres undefined) here?
A: 0.71 nM

Q: What does the source list for `CSCC[C@@H]1NC(=O)[C@@H](NC(=O)[C@H](CCCNC(=N)N)NC(=O)[C@H](CC(C)C)NC(=O)[C@H](CCSC)NC(=O)[C@H](CC(=O)O)NC(=O)[C@H](Cc2ccccc2)NC(=O)[C@@H](N)CC(=O)O)CSSC[C@@H](C(=O)N[C@@H](Cc2c[nH]c3ccccc23)C(=O)N[C@@H](CCC(N)=O)CN[C@@H](Cc2ccc(O)cc2)C(=O)O)NC(=O)[C@@H]2CCCN2C(=O)[C@H](CCCNC(=N)N)NC(=O)[C@H](Cc2ccccc2)NC(=O)[C@H](C(C)C)NC(=O)[C@H](CCCNC(=N)N)NC(=O)CNC(=O)[C@H](CC(C)C)NC1=O` (H-DFDMLRCMLGRVFRPCW-X1; disulfide 7-16)?
A: Ki [4]: 0.052 nM; Ki [5]: 1.6 nM; Ki [7]: 0.034 nM
